# Measured values published in the supplement of paper PMC11061612.
# Key:
# Test in all cases: combination Emax (second highest fraction inhibited in the dose matrix, 72 h); higher = more inhibition; extreme values may be limits of the assay
# [1] = system: LS-123 (Colorectal Carcinoma)
# Summary of the method: (§1)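 Cell lines in DMEM/F12 or RPMI with 10% FBS were plated in 1536-well plates, held 24 hours at 37°C, 5% CO2, then given two-drug dose matrices for 72 hours (DMSO typically 0.2%). Viability was read by CellTiter-Glo 2.0 luminescence and scaled as inhibition from 0 (vehicle wells) to 1 (blank wells). Combination Emax is the second-highest inhibition in the matrix; Bliss excess is observed combination effect minus expected EA + EB − EA·EB, EA and EB being single-agent effects.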
# [2] = system: KYAE-1 (Esophageal Adenocarcinoma)
# Summary of the method: as §1
# [3] = system: OVCAR-5 (Ovarian Carcinoma)
# Summary of the method: as §1
# [4] = system: MHH-CALL-2 (B-Lymphoblastic Leukemia)
# Summary of the method: as §1
# MPP-89 (Mesothelioma) = system: MPP-89 (Mesothelioma)
# Summary of the method: as §1
# [5] = system: LNZTA3WT4 (Low Grade Glioma)
# Summary of the method: as §1
# [6] = system: BFTC-909 (Kidney Carcinoma)
# Summary of the method: as §1
# [7] = system: SW1710 (Bladder Carcinoma)
# Summary of the method: as §1
# [8] = system: L-428 (Hodgkin's Lymphoma)
# Summary of the method: as §1
# KS-1 (Glioblastoma) = system: KS-1 (Glioblastoma)
# Summary of the method: as §1
# NCI-H2722 (Mesothelioma) = system: NCI-H2722 (Mesothelioma)
# Summary of the method: as §1
# GAMG (Glioblastoma) = system: GAMG (Glioblastoma)
# Summary of the method: as §1
# [9] = system: Detroit562 (Head and Neck Carcinoma)
# Summary of the method: as §1
# [10] = system: HuCCT1 (Biliary Tract Carcinoma)
# Summary of the method: as §1
# [11] = system: BE-13 (T-Lymphoblastic Leukemia)
# Summary of the method: as §1
# NCI-H2052 (Mesothelioma) = system: NCI-H2052 (Mesothelioma)
# Summary of the method: as §1
# BE2-M17 (Neuroblastoma) = system: BE2-M17 (Neuroblastoma)
# Summary of the method: as §1
# [12] = system: ESS-1 (Other Solid Carcinomas)
# Summary of the method: as §1
# [13] = system: OV-56 (Ovarian Carcinoma)
# Summary of the method: as §1
# [14] = system: SNU-16 (Gastric Carcinoma)
# Summary of the method: as §1
Structure (SMILES),combination Emax [1],combination Emax [2],combination Emax [3],combination Emax [4],combination Emax (MPP-89 (Mesothelioma)),combination Emax [5],combination Emax [6],combination Emax [7],combination Emax [8],combination Emax (KS-1 (Glioblastoma)),combination Emax (NCI-H2722 (Mesothelioma)),combination Emax (GAMG (Glioblastoma)),combination Emax [9],combination Emax [10],combination Emax [11],combination Emax (NCI-H2052 (Mesothelioma)),combination Emax (BE2-M17 (Neuroblastoma)),combination Emax [12],combination Emax [13],combination Emax [14]
"CN(C)CCCOc1ccc(-c2ccc3ncc4c(c3c2)n(C2CCOCC2)c(=O)n4C)cn1 [AZD0156] + O=C(c1cc(Cc2n[nH]c(=O)c3ccccc23)ccc1F)N1CCN(C(=O)C2CC2)CC1 [Olaparib] (first compound max 3 µM, partner max 3 µM)",0.37,0.271,0.45,0.228,0.235,0.206,0.527,0.0777,0.228,0.197,0.181,0.336,0.435,0.202,0.428,0.251,0.331,0.489,0.0996,
"C=CCn1c(=O)c2cnc(Nc3ccc(N4CCN(C)CC4)cc3)nc2n1-c1cccc(C(C)(C)O)n1 [AZD1775] + C1CN(CCC1(C(=O)N[C@@H](CCO)C2=CC=C(C=C2)Cl)N)C3=NC=NC4=C3C=CN4 [Capivasertib] (first compound max 3 µM, partner max 3 µM)",0.636,0.579,0.572,0.869,0.685,0.804,0.922,0.475,0.759,0.589,0.262,0.829,0.92,0.741,0.968,0.518,0.906,0.949,0.389,
"CN(CCO)CC[C@H](CSc1ccccc1)Nc1ccc(S(=O)(=O)NC(=O)c2ccc(N3CCC([C@@H](O)c4ccccc4-c4ccc(Cl)cc4)CC3)cc2)cc1S(=O)(=O)C(F)(F)F [AZD4320] + C1CN(CCC1(C(=O)N[C@@H](CCO)C2=CC=C(C=C2)Cl)N)C3=NC=NC4=C3C=CN4 [Capivasertib] (first compound max 1 µM, 7x7, partner max 3 µM)",,0.65,0.17,0.311,0.198,0.218,0.346,0.302,0.785,0.296,0.22,0.407,0.414,0.121,0.994,0.229,0.374,0.579,0.0773,0.27
"CN(CCO)CC[C@H](CSc1ccccc1)Nc1ccc(S(=O)(=O)NC(=O)c2ccc(N3CCC([C@@H](O)c4ccccc4-c4ccc(Cl)cc4)CC3)cc2)cc1S(=O)(=O)C(F)(F)F [AZD4320] + C=CCn1c(=O)c2cnc(Nc3ccc(N4CCN(C)CC4)cc3)nc2n1-c1cccc(C(C)(C)O)n1 [AZD1775] (first compound max 1 µM, partner max 1 µM)",,0.843,0.357,0.739,0.628,0.889,0.905,0.418,0.983,0.549,0.55,0.643,0.684,0.807,1,0.374,0.92,1,0.165,0.917
"CN(CCO)CC[C@H](CSc1ccccc1)Nc1ccc(S(=O)(=O)NC(=O)c2ccc(N3CCC([C@@H](O)c4ccccc4-c4ccc(Cl)cc4)CC3)cc2)cc1S(=O)(=O)C(F)(F)F [AZD4320] + CN(C)CCCOc1ccc(-c2ccc3ncc4c(c3c2)n(C2CCOCC2)c(=O)n4C)cn1 [AZD0156] (first compound max 1 µM, 7x7, partner max 1 µM)",,0.338,0.164,0.391,0.236,0.0987,0.239,0.117,0.828,0.239,0.285,0.197,0.168,0.251,0.977,0.201,0.258,0.478,0.153,0.322
"CN(CCO)CC[C@H](CSc1ccccc1)Nc1ccc(S(=O)(=O)NC(=O)c2ccc(N3CCC([C@@H](O)c4ccccc4-c4ccc(Cl)cc4)CC3)cc2)cc1S(=O)(=O)C(F)(F)F [AZD4320] + Cn1cnc2c(F)c(Nc3ccc(Br)cc3Cl)c(C(=O)NOCCO)cc21 [Selumetinib] (first compound max 1 µM, 7x7, partner max 3 µM)",,0.377,0.613,0.965,0.399,0.329,0.473,0.315,0.737,0.341,0.508,0.296,0.637,0.571,0.995,0.262,0.852,0.851,0.304,0.649
"COc1nnc2ccc(N3CCC(c4ccc(OCCN5CCN(C)C(=O)[C@H]5C)cc4)CC3)nn12 [AZD5153] + C=CCn1c(=O)c2cnc(Nc3ccc(N4CCN(C)CC4)cc3)nc2n1-c1cccc(C(C)(C)O)n1 [AZD1775] (first compound max 1 µM, partner max 1 µM)",0.546,0.0798,0.563,0.742,0.482,0.643,0.702,0.36,0.918,0.686,0.58,0.665,0.823,0.767,1,0.407,0.964,0.898,0.279,0.871
"COc1nnc2ccc(N3CCC(c4ccc(OCCN5CCN(C)C(=O)[C@H]5C)cc4)CC3)nn12 [AZD5153] + CC1(C)CCC(CN2CCN(c3ccc(C(=O)NS(=O)(=O)c4ccc(NCC5CCOCC5)c([N+](=O)[O-])c4)c(Oc4cnc5[nH]ccc5c4)c3)CC2)=C(c2ccc(Cl)cc2)C1 [Venetoclax] (first compound max 1 µM, 7x7, partner max 1 µM)",0.43,0.0501,0.514,0.429,0.497,0.344,0.496,0.291,0.8,0.649,0.471,0.436,0.8,0.511,0.708,0.359,0.621,0.63,0.24,0.731
"COc1nnc2ccc(N3CCC(c4ccc(OCCN5CCN(C)C(=O)[C@H]5C)cc4)CC3)nn12 [AZD5153] + CCN(CCO)CCCOc1ccc2c(Nc3cc(CC(=O)Nc4cccc(F)c4)[nH]n3)ncnc2c1 [AZD2811] (first compound max 1 µM, 7x7, partner max 1 µM)",0.44,0.0877,0.545,0.5,0.467,0.457,0.535,0.33,0.845,0.641,0.521,0.609,0.892,0.498,0.92,0.395,0.644,0.809,0.283,0.868
"Cc1c2c(nn1C)CSCc1cc(n(C)n1)CSc1cc(c3ccccc3c1)OCCCc1c(C(=O)O)n(C)c3c-2c(Cl)ccc13 [AZD5991] + C[C@@H]1COCCN1C2=NC(=NC(=C2)C3(CC3)[S@](=N)(=O)C)C4=C5C=CNC5=NC=C4 [AZD6738] (first compound max 1 µM, 7x7, partner max 10 µM)",0.609,0.207,0.645,1,0.596,0.761,0.931,0.436,0.808,0.587,0.401,0.579,0.902,0.756,,0.338,0.991,0.958,0.558,1
"COc1cccc(OCCCN)c1-c1cc(Nc2cnc(C#N)cn2)n[nH]1 [Prexasertib] + Cc1cc2ncnn2cc1Nc1ncc2c(n1)n(C1CCOCC1)c(=O)n2C [AZD7648] (first compound max 1 µM, 7x7, partner max 10 µM)",0.764,0.467,0.829,,0.734,0.9,0.945,0.728,0.958,0.546,0.216,0.777,0.922,0.83,0.952,0.649,0.983,1,0.88,0.998
"COc1cccc(OCCCN)c1-c1cc(Nc2cnc(C#N)cn2)n[nH]1 [Prexasertib] + O=C(c1cc(Cc2n[nH]c(=O)c3ccccc23)ccc1F)N1CCN(C(=O)C2CC2)CC1 [Olaparib] (first compound max 1 µM, 7x7, partner max 10 µM)",0.771,0.56,0.693,,0.714,0.885,0.917,0.761,0.953,0.628,0.234,0.83,0.922,0.844,0.978,0.589,0.958,1,0.89,1
"CCc1c2c(nc3ccc(O)cc13)-c1cc3c(c(=O)n1C2)COC(=O)[C@]3(O)CC [SN-38] + CN(C)CCCOc1ccc(-c2ccc3ncc4c(c3c2)n(C2CCOCC2)c(=O)n4C)cn1 [AZD0156] (first compound max 0.3 µM, 7x7, partner max 1 µM)",0.481,0.105,0.567,,0.632,0.449,0.899,0.312,0.894,0.464,0.301,0.737,0.848,0.508,0.748,0.837,0.887,1,0.88,0.927
